In US9133218B2, “Pesticidally active pyridyl- and pyrimidyl-substituted thiazole derivatives” (Syngenta Participations AG, priority 2012, dated 2015) one finds mortality data, which are given here for 37 compounds.

Where two headings read alike, the source gives them in different places.

Assay type in all cases: in vivo
Assay [1] relates to Myzus persicae (Green Peach Aphid). The assay is described as follows: Activity against Myzus persicae (green peach aphid), sunflower leaf disc spray test. Conditions: foliar, 144 h, read-out: activity (mortality) against Myzus persicae. From the text: Activity Against Myzus persicae (Green Peach Aphid)
Assay [2] has as its system Bemisia tabaci (Cotton White Fly). The assay is described as follows: Activity against Bemisia tabaci (cotton white fly), cotton leaf disc spray test. Conditions: foliar, 144 h, read-out: activity (mortality and special effects) against Bemisia tabaci. The procedure:
Activity Against Bemisia tabaci (Cotton White Fly)
Cotton leaf discs were placed on agar in a 24-well microtiter plate and sprayed with test solutions. After drying, the leaf discs were infested with 12 to 18 adults. After an incubation period of 6 days after infestation, samples were checked for mortality and special effects (e.g. phytotoxicity).

Assay [3] concerns Aedes aegypti (Yellow Fever Mosquito). Kind of assay: whole plant or invertebrate. Conditions: 200 ppm in ethanol, adult females, after 48 h and/or 24 h, read-out: control of Aedes aegypti (mortality). The procedure: Aedes aegypti (Yellow Fever Mosquito)
Test solutions, at an application rate of 200 ppm in ethanol, were applied to 12 well tissue culture plates. Once the deposits were dry, five, two to five day old adult female Aedes aegypti were added to each well, and sustained with a 10% sucrose solution in a cotton wool plug. Mortality was assessed at 24 and 48 hours after introduction. The following compounds gave at least 80% control of Aedes aegypti after 48 h and/or 24 h: No. 1.026, 1.027, 1.030 and 1.025.

For assay [4], the system named is Anopheles stephensi (Indian Malaria Mosquito). Kind of assay: Anopheles stephensi (Indian malaria mosquito) contact test on treated plates. Conditions: 200 ppm in ethanol, adult females, after 48 h and/or 24 h, read-out: control of Anopheles stephensi (mortality). The procedure: Anopheles stephensi (Indian Malaria Mosquito)
Test solutions, at an application rate of 200 ppm in ethanol, were applied to 12 well tissue culture plates. Once the deposits were dry, five, two to five day old adult female Anopheles stephensi were added to each well, and sustained with a 10% sucrose solution in a cotton wool plug. Mortality was assessed at 24 and 48 hours after introduction. The following compounds gave at least 80% control of Anopheles stephensi after 48 h and/or 24 h: No. 1.026 and 1.030.

Assay [5] concerns Tetranychusurticae (Two-Spotted Spider Mite). Kind of assay: whole plant or invertebrate. Particulars: Tetranychus urticae, foliar, 192 h, read-out: activity (egg, larval and adult mortality) against Tetranychus urticae. From the text: Activity Against Tetranychusurticae (Two-Spotted Spider Mite)
Bean leaf discs on agar in 24-well microtiter plates are sprayed with test solutions. After drying, the leaf discs are infested with mite populations of mixed ages. 8 days later, discs are checked for egg mortality, larval mortality, and adult mortality.

The test system of assay [6] is Spodoptera littoralis (Egyptian Cotton Leaf Worm). The assay is described as follows: Activity against Spodoptera littoralis (Egyptian cotton leaf worm), systemic lettuce test. Particulars: 120 h, systemic via lettuce roots, 5 days after infestation, read-out: activity (mortality, repellent effect, feeding behavior, growth regulation) against Spodoptera littoralis. An excerpt:
Activity Against Spodoptera littoralis (Egyptian Cotton Leaf Worm)
Test compounds were applied by pipette into 24 well plates and mixed with agar. Lettuce seeds were placed on the agar and the multi well plate is closed by another plate which contains also agar. After 7 days the roots have absorbed the compound and the lettuce has grown into the lid plate. The lettuce leafs were now cut off into the lid plate. Spodoptera eggs were pipetted through a plastic stencil on a humid gel blotting paper and the plate closed with it. The samples are checked for mortality, repellent effect, feeding behavior, and growth regulation 5 days after infestation.

Assay [7] has as its system Heliothis virescens (Tobacco Budworm). Kind of assay: Activity against Heliothis virescens (tobacco budworm), eggs on artificial diet. Particulars: eggs 0-24 h old, 4 days incubation, read-out: activity (egg mortality, larval mortality, growth regulation) against Heliothis virescens. The procedure:
Activity Against Heliothis virescens (Tobacco Budworm)
Eggs (0-24 h old) are placed in 24-well microtiter plate on artificial diet and treated with test solutions by pipetting. After an incubation period of 4 days, samples are checked for egg mortality, larval mortality, and growth regulation.

Where [8] appears, read: 200 ppm, mixed-age aphid population, 6 days incubation.
Where [9] appears, read: 200 ppm, adults, 6 days after infestation.

As a reminder, the mortality is the percentage killed. For `Cc1nc(-c2cccnc2)sc1-c1ccc2c(n1)/C(=N/O)CCC2` (single isomer, unassigned) [Compound 1.025, 2-[4-methyl-2-(3-pyridyl)thiazol-5-yl]-6,7-dihydro-5H-quinolin-8-one oxime], the mortality at 200 ppm in assay [1] (setting [8]) was more than 80%; in assay [2] (setting [9]), more than 80%; in assay [3], not below 80%.

Take `CCO/N=C1\CCCc2ccc(-c3cnc(-c4cccnc4)s3)nc21` [Compound 1.003]: the mortality at 200 ppm in assay [1] (setting [8]) and in assay [2] (setting [9]) was more than 80% each time.

As to `CO/N=C1\CCCc2ccc(-c3sc(-c4cccnc4)nc3C)nc21` [Compound 1.026], the mortality at 200 ppm in assay [1] (setting [8]) was more than 80%; in assay [2] (setting [9]), more than 80%; in assay [3], not below 80%; in assay [4], not below 80%.

Consider `CCO/N=C1\CCCc2ccc(-c3sc(-c4cccnc4)nc3C)nc21` [Compound 1.027], for which the mortality at 200 ppm was more than 80% in assay [1] (setting [8]), more than 80% in assay [2] (setting [9]) and not below 80% in assay [3].

In the case of `CCCO/N=C1\CCCc2ccc(-c3sc(-c4cccnc4)nc3C)nc21` [Compound 1.028], the mortality at 200 ppm in assay [1] (setting [8]), in assay [2] (setting [9]) and in assay [5] was more than 80% in each case.

As for `Cc1nc(-c2cccnc2)sc1-c1ccc2c(n1)/C(=N/OC(C)C)CCC2` [Compound 1.029], the mortality at 200 ppm in assay [1] (setting [8]) and in assay [2] (setting [9]) was more than 80% throughout.

`C=CCO/N=C1\CCCc2ccc(-c3sc(-c4cccnc4)nc3C)nc21` [Compound 1.030]: the mortality at 200 ppm in assay [1] (setting [8]) was more than 80%; in assay [2] (setting [9]) it was more than 80%; in assay [3], not below 80%; in assay [4] it was not below 80%.

Turning to `CO/N=C1\CCOc2ccc(-c3sc(-c4cccnc4)nc3C)nc21` [Compound 1.032, N-methoxy-6-[4-methyl-2-(3-pyridyl)thiazol-5-yl]-2,3-dihydropyrano[3,2-b]pyridin-4-imine], the mortality at 200 ppm in assay [1] (setting [8]) and in assay [2] (setting [9]) was more than 80% throughout.

On to `CCO/N=C1\CCOc2ccc(-c3sc(-c4cccnc4)nc3C)nc21` [Compound 1.033], for which the mortality at 200 ppm in assay [1] (setting [8]) and in assay [2] (setting [9]) was more than 80% each time.

Take `Cc1nc(-c2cccnc2)sc1-c1ccc2c(n1)/C(=N/OC(C)C)CCO2` [Compound 1.035]: the mortality at 200 ppm in assay [1] (setting [8]) and in assay [2] (setting [9]) was more than 80% throughout.

In the case of `C=CCO/N=C1\CCOc2ccc(-c3sc(-c4cccnc4)nc3C)nc21` [Compound 1.036], the mortality at 200 ppm in assay [1] (setting [8]) and in assay [2] (setting [9]) was more than 80% in each case.

Regarding `Cc1nc(-c2cccnc2)sc1-c1ccc2c(n1)/C(=N/OCCCc1ccccc1)CCC2` [Compound 1.049], the mortality at 200 ppm in assay [1] (setting [8]) and in assay [2] (setting [9]) was more than 80% each time.

On to `Cc1nc(-c2cccnc2)sc1-c1ccc2c(n1)/C(=N/OCC(F)F)CCC2` [Compound 1.050], for which the mortality at 200 ppm in assay [1] (setting [8]) was more than 80%. For the same compound, the mortality at 12.5 ppm in assay [6] is more than 80%.

With `Cc1nc(-c2cccnc2)sc1-c1ccc2c(n1)/C(=N/OCCCC1OCCO1)CCC2` [Compound 1.051], in assay [1] (setting [8]), the mortality at 200 ppm was more than 80%.

As for `Cc1nc(-c2cccnc2)sc1-c1ccc2c(n1)/C(=N/OCCc1ccc(F)cc1)CCC2` [Compound 1.053], the mortality at 200 ppm in assay [1] (setting [8]) was more than 80%. The mortality at 12.5 ppm in assay [6] was more than 80%.

Consider `Cc1nc(-c2cccnc2)sc1-c1ccc2c(n1)/C(=N/OCCC1CCCN1C)CCC2` (centres unmarked) [Compound 1.054], for which the mortality at 200 ppm in assay [1] (setting [8]) is more than 80%.

As for `Cc1nc(-c2cccnc2)sc1-c1ccc2c(n1)/C(=N/OCc1ccc(Cl)cc1)CCC2` [Compound 1.062], in assay [1] (setting [8]), the mortality at 200 ppm is more than 80%.

Turning to `Cc1nc(-c2cccnc2)sc1-c1ccc2c(n1)/C(=N/OCC#Cc1ccccc1)CCC2` [Compound 1.063], the mortality at 200 ppm in assay [1] (setting [8]) and in assay [5] was more than 80% in each case.

As for `Cc1nc(-c2cccnc2)sc1-c1ccc2c(n1)/C(=N/OCC1CCCCC1)CCC2` [Compound 1.064], the mortality at 200 ppm in assay [1] (setting [8]) is more than 80%.

For `Cc1nc(-c2cccnc2)sc1-c1ccc2c(n1)/C(=N/OCCSc1ccc(F)cc1)CCC2` [Compound 1.065], the mortality at 200 ppm in assay [7] is more than 80%.

With `Cc1nc(-c2cccnc2)sc1-c1ccc2c(n1)/C(=N/OCC1OCCO1)CCC2` [Compound 1.066], in assay [1] (setting [8]), the mortality at 200 ppm is more than 80%.

Regarding `Cc1nc(-c2cccnc2)sc1-c1ccc2c(n1)/C(=N/OCc1cc(C(F)(F)F)cc(C(F)(F)F)c1)CCC2` [Compound 1.067], in assay [6], the mortality at 12.5 ppm was more than 80%.

`Cc1nc(-c2cccnc2)sc1-c1ccc2c(n1)/C(=N/OCc1ccccc1)CCC2` [Compound 1.068]: in assay [1] (setting [8]), the mortality at 200 ppm was more than 80%.

As to `CO/N=C1\CCSc2sc(-c3sc(-c4cccnc4)nc3C)nc21` [Compound 3.050, N-methoxy-2-[4-methyl-2-(3-pyridyl)thiazol-5-yl]-5,6-dihydrothiopyrano[3,2-d]thiazol-7-imine], the mortality at 200 ppm in assay [1] (setting [8]) and in assay [2] (setting [9]) was more than 80% throughout.

Take `CCO/N=C1\CCSc2sc(-c3sc(-c4cccnc4)nc3C)nc21` [Compound 3.051]: the mortality at 200 ppm in assay [1] (setting [8]) and in assay [2] (setting [9]) was more than 80% in each case.

As for `C=CCO/N=C1\CCSc2sc(-c3sc(-c4cccnc4)nc3C)nc21` [Compound 3.053], the mortality at 200 ppm in assay [1] (setting [8]) and in assay [2] (setting [9]) was more than 80% in each case.

`CN/N=C1\CCCc2ccc(-c3sc(-c4cccnc4)nc3C)nc21` [Compound 6.009]: the mortality at 200 ppm in assay [1] (setting [8]) is more than 80%.

With `COC(=O)N/N=C1\CCCc2ccc(-c3sc(-c4cccnc4)nc3C)nc21` [Compound 6.011, Methyl N-[(E)-[2-[4-methyl-2-(3-pyridyl)thiazol-5-yl]-6,7-dihydro-5H-quinolin-8-ylidene]amino]carbamate], the mortality at 200 ppm in assay [1] (setting [8]) and in assay [2] (setting [9]) was more than 80% throughout.

For `CN/N=C1\CCOc2ccc(-c3sc(-c4cccnc4)nc3C)nc21` [Compound 6.016], in assay [1] (setting [8]), the mortality at 200 ppm was more than 80%.

As to `COC(=O)N/N=C1\CCOc2ccc(-c3sc(-c4cccnc4)nc3C)nc21` [Compound 6.018], the mortality at 200 ppm in assay [2] (setting [9]) is more than 80%.

Turning to `COC(=O)N(C)/N=C1\CCOc2ccc(-c3sc(-c4cccnc4)nc3C)nc21` [Compound 6.019], the mortality at 200 ppm in assay [1] and in assay [2] was more than 80% in each case.

As for `Cc1nc(-c2cccnc2)sc1-c1ccc2c(n1)/C(=N/N(C)S(C)(=O)=O)CCO2` [Compound 6.021], the mortality at 200 ppm in assay [2] (setting [9]) was more than 80%.

With `Cc1nc(-c2cccnc2)sc1-c1ccc2c(n1)/C(=N/Nc1ccc(F)cc1)CCC2` [Compound 6.029], the mortality at 200 ppm in assay [1] (setting [8]) is more than 80%.

For the compound `Cc1nc(-c2cccnc2)sc1-c1ccc2c(n1)/C(=N/NCC(F)(F)F)CCC2` [Compound 6.032], in assay [1] (setting [8]), the mortality at 200 ppm is more than 80%.

Consider `Cc1nc(-c2cccnc2)sc1-c1ccc2c(n1)/C(=N\NCC(F)(F)F)CCC2` [Compound 6.033], for which the mortality at 200 ppm in assay [1] (setting [8]) and in assay [7] was more than 80% each time.

On to `COc1ccc(N/N=C2\CCCc3ccc(-c4sc(-c5cccnc5)nc4C)nc32)cc1` [Compound 6.034], for which the mortality at 200 ppm in assay [1] (setting [8]) was more than 80%.

Turning to `Cc1nc(-c2cccnc2)sc1-c1ccc2c(n1)/C(=N/NC(C)(C)C)CCC2` [Compound 6.035], the mortality at 200 ppm in assay [1] (setting [8]) was more than 80%.
